This is an account of results in publication PMC10804667, “Molecular mechanism of Fe^3+ binding inhibition to Vibrio metschnikovii ferric ion‐binding protein, FbpA, by rosmarinic acid and its hydrolysate, danshensu” (Protein Science : A Publication of the Protein Society, 2024).

A short description of series [1]: Fe3+ reduction capacity (o-phenanthroline assay). Conditions: 40 μM Fe^3+; concentration giving 20 μM Fe^2+; read-out: EC50 for reduction from Fe^3+ to Fe^2+. On the procedure: Solutions containing 40 μM FeCl3 and varying concentrations of RA, DSS, and CA (0, 0.625, 1.25, 5, 10, 20, and 40 μM) were prepared and analyzed. Each sample was combined with 0.25% o‐phenanthroline (2 mL) followed by a pH adjustment to 3.5 with HCl, and Milli‐Q water was added to reach a final volume of 25 mL. After incubation at room temperature for 1 h, the absorbance at 510 nm was measured using a microplate spectrophotometer (Benchmark Plus, Bio‐Rad), and the concentration of Fe^2+ was determined using FeSO4·7H2O as a standard. The Fe^2+ concentrations were plotted and fitted as a function of Log2(inhibitor concentration) using GraphPad Prism (version: 9.5.0) software with a nonlinear regression model. The half maximal effective concentration (EC50) was calculated by reading the inhibitor concentrations at an Fe^2+ concentration of 20 μM.

For another series, the system named is V. metschnikovii. In words: Bacteriostatic assay. It is filed as cell-based. Conditions: Vibrio metschnikovii, 20 h, NB medium, 37°C, 20 h culture; concentration at inhibitory rate of 95%. How it is done: A pre‐culture of V. metschnikovii was prepared in 5 mL of NB medium (3.0 g/L meat extract, 5.0 g/L meat peptone, 10.0 g/L NaCl, pH 7.0) at 37°C. When the OD600 reached ~0.6, 2 μL of the pre‐culture was inoculated into 200 μL of NB medium for the bacteriostatic assay. The culture was performed at 37°C in a 96‐well plate. Bacteriostatic agents (RA, DSS, and CA) were tested at a range of concentrations (5000 μM to 39 μM). The cultures without bacteriostatic agents were used as a natural growth control and the cultures without bacteria were used as the respective sterile controls (Blanks). The OD600 was measured using a microplate spectrophotometer (Benchmark Plus, Bio‐Rad).
The antibacterial inhibitory rates were calculated based on the following formula after culture for 20 h: Inhibitory rates%=1−OD600,NG−OD600,BKs−OD600,Is−OD600,BKs/OD600,NG−OD600,BKs×100%,
where NG, Is, and BKs refer to the natural growth control group, experimental groups with inhibitors, and their respective sterile control groups, respectively.
The inhibitory rate was plotted and fitted as a function of Log2(inhibitor concentration) using GraphPad Prism (version: 9.5.0) software with a nonlinear regression model. The MIC was calculated by reading the concentrations at the inhibitory rate of 95%.

Series [2] addresses VmFbpA. Description: Isothermal titration calorimetry (ITC) of ligand binding to VmFbpA. Also noted: species or system Vibrio metschnikovii. To be noted: 298 K, 20 mM HEPES pH 8.0, 50 mM NaCl, apo VmFbpA, read-out: K D for VmFbpA. On the procedure: The 6× His‐free apo VmFbpA samples were dialyzed overnight at 4°C against dialysis buffer (20 mM pH 8.0 HEPES, 50 mM NaCl). ITC was performed using MicroCal iTC200 (Malvern). RA, DSS, or CA was dissolved in dialysis buffer at a final concentration of 400 μM and injected 20 times by a motor‐driven syringe into 200 μL of 20 μM Apo VmFbpA. The first injection volume was 0.1 μL and subsequent injection volumes were 2.0 μL. The reference cell of the microcalorimeter was filled with 200 μL of the corresponding dialysis buffer. The titrations were performed at room temperature. The data were analyzed using MicroCal LLC iTC 200 for Windows (Malvern). All experiments were repeated at least twice to ensure reproducibility.
For orientation: In ITC the heat of successive injections is recorded.

Series [3] concerns the target VmFbpA. In words: 6×His-based VmFbpA inhibition assay (pull-down assay) of Fe3+ binding. To be noted: 60 min at 4°C, 20 mM Tris–HCl pH 8.0, 50 mM NaHCO3, 100 mM NaCl, read-out: IC50 to VmFbpA (inhibition of Fe^3+ binding). It is filed as biochemical, Vibrio metschnikovii. On the procedure: (§1) Fe^3+‐bound His6‐VmFbpA (30 μM, 200 μL) was loaded onto a 40 μL Ni‐NTA slurry resin (bed volume: 20 μL) in a Micro Bio‐Spin column (Bio‐Rad) and incubated at 4°C for 30 min. The column was extensively washed with wash buffer (20 mM Tris–HCl, pH 8.0, 50 mM NaHCO3, 100 mM NaCl). Various concentrations of RA, DSS, or CA (200 μL) were added to the column and incubated for 60 min at 4°C in a solvent consisting of 20 mM Tris–HCl, pH 8.0, 50 mM NaHCO3, and 100 mM NaCl. The column was washed extensively with wash buffer and eluted with 100 μL of elution buffer (wash buffer containing 250 mM imidazole). The Fe concentration of the eluent was determined using ICP‐MS as reported previously (Lu et al. [2019]) and adjusted to the protein concentration, which was measured using a Pierce 660 nm Protein Assay. Samples without FeCl3 were used as a negative control group and samples lacking inhibitors were used as a positive control group. All buffers contained 0.3% DMSO to solubilize the inhibitors, unless otherwise indicated.
(§2) The protein inhibitory rates were calculated using the following formula: Inhibitory rates%=1−Conc.Fesample−Conc.Feapo/Conc.Feholo−Conc.Feapo×100%
(§3) The inhibitory rate was plotted and fitted as a function of inhibitor concentration by a logarithmic function model using GraphPad Prism (version: 9.5.0) software. The 50% inhibitory concentration (IC50) was calculated by reading the concentration at the inhibitory rate of 50%.

For a further series, the system named is Escherichia coli. Details: method as in Lu et al. [2021]. To be noted: 1000 μM; ref Lu et al. [2021]; cited from earlier work.
Series [4] can be described thus: Stability of RA in gel filtration buffer by RPC. It is filed as physicochemical. On the procedure: The stability of RA (1 mg/mL) in gel filtration buffer (20 mM Tris–HCl, pH 8.0, and 100 mM NaCl) at 20°C was assessed in the presence and absence of VmFbpA (molar ratio: 1 to 1) by the same RPC analysis. Sampling was performed every week and diluted 100 times with buffer before injecting into a RESOURCE RPC column. The other conditions are the same as described above.

The next series relates to V. metchnikovii. Details: method as in Lu et al. [2021]. Conditions: 1000 μM; ref Lu et al. [2021]; cited from earlier work.
Details of series [5]: method as in Sik et al. [2021]. Conditions: after 3 months of storage; ref Sik et al. [2021]; cited from earlier work.
For a further series, the target named is (UniProt Z9CIZ5JT55). Description: 6×His-based VmFbpA inhibition assay (pull-down assay) of Fe3+ binding. It is filed as biochemical, Vibrio metschnikovii. To be noted: 60 min at 4°C, 20 mM Tris–HCl pH 8.0, 50 mM NaHCO3, 100 mM NaCl, read-out: IC50 to VmFbpA (inhibition of Fe^3+ binding). On the procedure: as §1, §2, §3

Structures are written as SMILES. ≈ marks a conversion by molar mass, not a printed value. Where “and” joins values, the source holds several entries; their conditions need not be identical. Equal entries are not always repeated. A value given as a limit tells only on which side of the number the result lay.

What is called EC50 is the concentration that produces a half-maximal response. What is called MIC is the lowest concentration that inhibits growth of the organism. Higher therefore signals weaker potency. Usually IC50 stands for the concentration that inhibits the measured activity by half.

For the compound `O=C(O)/C=C/c1ccc(O)c(O)c1` [CA, caffeic acid], the EC50 in [1] was 31 ± 1 µM. In the series with V. metschnikovii, this compound showed an MIC of more than 3000 µM. For the same compound, the Kd on VmFbpA [2] is 18000 nM and ~18000 nM. The IC50 on VmFbpA [3] worked out at 6 ± 2 mM.

As for `O=C(O)[C@H](O)Cc1ccc(O)c(O)c1` [DSS, danshensu], in [1], the half-maximal effective concentration (EC50) was 23 ± 1 µM. For the same compound, on VmFbpA [2], the Kd was 900 nM and ~900 nM. The half-inhibitory concentration (IC50) at VmFbpA [3] is 4 ± 1 mM.

Take `O=C(/C=C/c1ccc(O)c(O)c1)O[C@H](Cc1ccc(O)c(O)c1)C(=O)O` [RA, Rosmarinic acid]: the EC50 in series [1] came out at 14.4 ± 0.1 µM. Also, the “effect on growth of Escherichia coli” value with Escherichia coli is “did not affect the growth”. Moreover, the minimum inhibitory concentration (MIC) against V. metschnikovii was determined as 440 ± 70 µM (≈ 159 µg/mL). Besides, in series [4] (20 mM Tris–HCl pH 8.0, 100 mM NaCl, stored at 20°C for 1 week), the “degradation of RA” value came to 5%. Besides, the “degradation rate of RA” value in series [4] (20 mM Tris–HCl pH 8.0, 100 mM NaCl, stored at 20°C for 2 weeks) is ~ 30%. The “change of degradation rate of RA in the presence of VmFbpA” value in series [4] (VmFbpA added at molar ratio 1:1, gel filtration buffer) is listed as “did not change significantly”. Besides, the “effect on growth of V. metchnikovii” value in the series with V. metchnikovii was “significantly reduced the growth”. Besides, the Kd at VmFbpA [2] worked out at 1100 ± 500 nM. The “hydrolysis rate of RA aqueous solution” value in series [5] was “exceeded 10%”. The IC50 at (UniProt Z9CIZ5JT55) worked out at 2.2 ± 0.3 mM.
